In publication PMC10337138 (Acta Neuropathologica Communications, 2023):

What was measured:
Conditions in all cases: 1 mM ATP; inhibitor
[1] = biological target: NUAK2 (Homo sapiens, UniProt Q9H093)
Experimental: (§1) Kinase selectivity panel Kinome profiling was conducted by AssayQuant Technologies (Marlboro, MA) using Sox chromophore technology and Sox-based peptide substrates developed for human kinases in a 384-well format. Compounds were tested at 1 µM in the presence of 1 mM ATP.

[2] = biological target: FLT1 (Homo sapiens, UniProt P17948)
Experimental: as §1

[3] = biological target: MAPK13/P38D (Homo sapiens, UniProt O15264)
Experimental: as §1

[4] = biological target: FGR (Homo sapiens, UniProt P09769)
Experimental: as §1

[5] = biological target: FGFR4 (Homo sapiens, UniProt P22455)
Experimental: as §1

[6] = biological target: JAK2(JH1) (Homo sapiens, UniProt O60674)
Experimental: as §1

[7] = biological target: SGK2 (Homo sapiens, UniProt Q9HBY8)
Experimental: as §1

[8] = biological target: INSR (Homo sapiens, UniProt P06213)
Experimental: as §1

[9] = biological target: ERN2 (Homo sapiens, UniProt Q76MJ5)
Experimental: as §1

[10] = biological target: PRKCZ/PKCZ (Homo sapiens, UniProt Q05513)
Experimental: as §1

[11] = biological target: STK26/MST4 (Homo sapiens, UniProt Q9P289)
Experimental: as §1

[12] = biological target: LATS2 (Homo sapiens, UniProt Q9NRM7)
Experimental: as §1

[13] = biological target: CSNK1G2/CK1G2 (Homo sapiens, UniProt P78368)
Experimental: as §1

[14] = biological target: ABL1 (Homo sapiens, UniProt P00519)
Experimental: as §1

[15] = biological target: SIK1 (Homo sapiens, UniProt P57059)
Experimental: as §1

[16] = biological target: MAP3K11 (Homo sapiens, UniProt Q16584)
Experimental: as §1

[17] = biological target: NTRK1 (Homo sapiens, UniProt P04629)
Experimental: as §1

[18] = biological target: BMP2K/BIKE (Homo sapiens, UniProt Q9NSY1)
Experimental: as §1

[19] = biological target: ULK1 (Homo sapiens, UniProt O75385)
Experimental: as §1

[20] = biological target: PRKG1 (Homo sapiens, UniProt Q13976)
Experimental: as §1

[21] = biological target: PRKAA2/AMPK211 (Homo sapiens, UniProt P54646)
Experimental: as §1

[22] = biological target: CSNK2A1/CK2A1 (Homo sapiens, UniProt P68400)
Experimental: as §1

[23] = biological target: RIPK1 (Homo sapiens, UniProt Q13546)
Experimental: as §1

[24] = biological target: MAK (Homo sapiens, UniProt P20794)
Experimental: as §1

[25] = biological target: FLT4 (Homo sapiens, UniProt P35916)
Experimental: as §1

[26] = biological target: CSNK1A1/CK1A1 (Homo sapiens, UniProt P48729)
Experimental: as §1

[27] = biological target: T1, DRAK1 (Homo sapiens, UniProt Q9UEE5)
T1 construct: gene STK17A
Experimental: as §1

[28] = biological target: JAK1(JH1) (Homo sapiens, UniProt P23458)
Experimental: as §1

[29] = biological target: MYLK/MLCK (Homo sapiens, UniProt Q15746)
Experimental: as §1

[30] = biological target: MYO3B (Homo sapiens, UniProt Q8WXR4)
Experimental: as §1

[31] = biological target: PAK6 (Homo sapiens, UniProt Q9NQU5)
Experimental: as §1

[32] = biological target: DYRK2 (Homo sapiens, UniProt Q92630)
Experimental: as §1

[33] = biological target: PKN3 (Homo sapiens, UniProt Q6P5Z2)
Experimental: as §1

[34] = biological target: CDK4/D3 (Homo sapiens, UniProt P11802)
Experimental: as §1

[35] = biological target: CSNK2A2/CK2A2 (Homo sapiens, UniProt P19784)
Experimental: as §1

[36] = biological target: GRK4 (Homo sapiens, UniProt P32298)
Experimental: as §1

[37] = biological target: CDK2/A2 (Homo sapiens, UniProt P24941)
Experimental: as §1

[38] = biological target: CHEK2/CHK2 (Homo sapiens, UniProt O96017)
Experimental: as §1

Chain of NTRK1 (P04629 whole entry): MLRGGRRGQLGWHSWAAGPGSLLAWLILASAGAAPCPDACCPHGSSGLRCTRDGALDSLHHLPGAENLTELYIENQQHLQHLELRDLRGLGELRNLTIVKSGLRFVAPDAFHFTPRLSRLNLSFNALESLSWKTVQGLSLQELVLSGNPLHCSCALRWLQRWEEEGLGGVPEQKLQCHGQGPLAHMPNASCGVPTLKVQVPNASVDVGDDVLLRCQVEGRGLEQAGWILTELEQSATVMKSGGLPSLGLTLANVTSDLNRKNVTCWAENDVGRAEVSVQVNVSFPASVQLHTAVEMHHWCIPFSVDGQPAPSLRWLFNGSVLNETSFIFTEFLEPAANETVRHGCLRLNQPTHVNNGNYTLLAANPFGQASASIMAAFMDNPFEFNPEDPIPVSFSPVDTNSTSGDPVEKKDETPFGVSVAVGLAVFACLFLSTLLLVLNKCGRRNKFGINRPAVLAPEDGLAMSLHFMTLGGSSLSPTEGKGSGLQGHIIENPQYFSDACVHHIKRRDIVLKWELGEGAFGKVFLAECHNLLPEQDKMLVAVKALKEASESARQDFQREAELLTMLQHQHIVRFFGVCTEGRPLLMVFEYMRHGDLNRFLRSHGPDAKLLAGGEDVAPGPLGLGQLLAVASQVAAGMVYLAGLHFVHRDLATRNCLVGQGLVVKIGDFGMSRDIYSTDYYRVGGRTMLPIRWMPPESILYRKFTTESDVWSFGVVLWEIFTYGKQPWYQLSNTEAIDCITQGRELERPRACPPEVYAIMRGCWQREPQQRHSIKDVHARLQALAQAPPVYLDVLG
Chain of CDK4/D3 (P11802 whole entry): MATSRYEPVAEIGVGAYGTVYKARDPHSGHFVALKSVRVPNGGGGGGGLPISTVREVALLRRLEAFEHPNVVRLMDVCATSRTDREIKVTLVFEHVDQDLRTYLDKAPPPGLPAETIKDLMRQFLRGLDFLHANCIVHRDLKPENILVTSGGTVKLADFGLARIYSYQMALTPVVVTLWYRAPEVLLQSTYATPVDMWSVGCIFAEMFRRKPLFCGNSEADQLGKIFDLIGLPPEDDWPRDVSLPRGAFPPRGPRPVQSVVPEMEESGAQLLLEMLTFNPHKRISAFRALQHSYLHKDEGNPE
Chain of CDK4/D3 (P30281 whole entry partner): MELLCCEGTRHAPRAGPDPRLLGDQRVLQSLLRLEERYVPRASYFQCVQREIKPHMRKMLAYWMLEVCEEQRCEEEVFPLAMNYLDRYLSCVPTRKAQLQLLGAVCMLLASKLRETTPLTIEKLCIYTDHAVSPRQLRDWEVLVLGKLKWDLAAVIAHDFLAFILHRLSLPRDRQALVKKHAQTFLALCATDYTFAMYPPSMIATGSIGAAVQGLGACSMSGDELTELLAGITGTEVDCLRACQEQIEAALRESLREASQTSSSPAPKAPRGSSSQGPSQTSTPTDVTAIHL
Chain of PAK6 (Q9NQU5 whole entry): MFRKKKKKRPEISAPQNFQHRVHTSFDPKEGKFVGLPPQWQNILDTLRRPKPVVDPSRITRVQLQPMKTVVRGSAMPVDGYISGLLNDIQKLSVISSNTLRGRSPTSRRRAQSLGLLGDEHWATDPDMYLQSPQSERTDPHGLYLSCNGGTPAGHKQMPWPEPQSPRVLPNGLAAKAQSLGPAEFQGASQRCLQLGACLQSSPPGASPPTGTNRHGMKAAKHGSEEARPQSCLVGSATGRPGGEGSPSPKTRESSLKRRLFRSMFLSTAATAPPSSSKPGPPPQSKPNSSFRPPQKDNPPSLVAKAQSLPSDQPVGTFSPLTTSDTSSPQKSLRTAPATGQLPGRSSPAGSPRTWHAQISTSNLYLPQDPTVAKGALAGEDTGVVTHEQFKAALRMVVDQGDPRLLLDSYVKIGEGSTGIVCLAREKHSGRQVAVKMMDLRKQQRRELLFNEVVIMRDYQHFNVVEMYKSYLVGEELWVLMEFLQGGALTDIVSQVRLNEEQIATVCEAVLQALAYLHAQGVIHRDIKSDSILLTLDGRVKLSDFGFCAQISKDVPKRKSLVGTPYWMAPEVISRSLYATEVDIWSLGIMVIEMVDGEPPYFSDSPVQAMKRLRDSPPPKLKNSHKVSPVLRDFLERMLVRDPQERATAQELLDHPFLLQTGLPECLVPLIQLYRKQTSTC
Chain of CSNK2A1/CK2A1 (P68400 whole entry): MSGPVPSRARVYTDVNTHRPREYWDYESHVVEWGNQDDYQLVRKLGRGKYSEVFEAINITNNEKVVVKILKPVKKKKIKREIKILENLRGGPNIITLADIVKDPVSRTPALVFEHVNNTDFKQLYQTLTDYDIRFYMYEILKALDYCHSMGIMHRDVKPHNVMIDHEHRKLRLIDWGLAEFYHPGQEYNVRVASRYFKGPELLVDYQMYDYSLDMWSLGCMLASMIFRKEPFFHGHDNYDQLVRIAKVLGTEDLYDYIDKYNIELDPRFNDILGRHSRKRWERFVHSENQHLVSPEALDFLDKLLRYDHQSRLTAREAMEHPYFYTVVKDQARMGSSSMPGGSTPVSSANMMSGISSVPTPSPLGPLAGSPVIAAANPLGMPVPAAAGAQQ
Chain of FGR (P09769 whole entry): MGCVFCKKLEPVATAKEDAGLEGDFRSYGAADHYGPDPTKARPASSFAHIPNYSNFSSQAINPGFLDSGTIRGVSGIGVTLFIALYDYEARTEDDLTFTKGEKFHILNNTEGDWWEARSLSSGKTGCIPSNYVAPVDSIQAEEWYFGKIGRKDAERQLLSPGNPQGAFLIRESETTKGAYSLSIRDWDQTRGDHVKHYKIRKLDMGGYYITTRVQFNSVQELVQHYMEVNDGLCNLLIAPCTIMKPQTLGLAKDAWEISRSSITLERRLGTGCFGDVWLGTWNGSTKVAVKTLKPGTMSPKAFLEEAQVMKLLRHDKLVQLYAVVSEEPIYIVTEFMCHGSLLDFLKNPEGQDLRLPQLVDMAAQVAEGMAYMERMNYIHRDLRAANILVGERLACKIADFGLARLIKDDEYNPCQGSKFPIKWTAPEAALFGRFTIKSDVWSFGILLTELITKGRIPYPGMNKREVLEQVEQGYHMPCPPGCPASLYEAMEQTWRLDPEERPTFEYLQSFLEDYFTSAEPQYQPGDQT
Chain of LATS2 (Q9NRM7 whole entry): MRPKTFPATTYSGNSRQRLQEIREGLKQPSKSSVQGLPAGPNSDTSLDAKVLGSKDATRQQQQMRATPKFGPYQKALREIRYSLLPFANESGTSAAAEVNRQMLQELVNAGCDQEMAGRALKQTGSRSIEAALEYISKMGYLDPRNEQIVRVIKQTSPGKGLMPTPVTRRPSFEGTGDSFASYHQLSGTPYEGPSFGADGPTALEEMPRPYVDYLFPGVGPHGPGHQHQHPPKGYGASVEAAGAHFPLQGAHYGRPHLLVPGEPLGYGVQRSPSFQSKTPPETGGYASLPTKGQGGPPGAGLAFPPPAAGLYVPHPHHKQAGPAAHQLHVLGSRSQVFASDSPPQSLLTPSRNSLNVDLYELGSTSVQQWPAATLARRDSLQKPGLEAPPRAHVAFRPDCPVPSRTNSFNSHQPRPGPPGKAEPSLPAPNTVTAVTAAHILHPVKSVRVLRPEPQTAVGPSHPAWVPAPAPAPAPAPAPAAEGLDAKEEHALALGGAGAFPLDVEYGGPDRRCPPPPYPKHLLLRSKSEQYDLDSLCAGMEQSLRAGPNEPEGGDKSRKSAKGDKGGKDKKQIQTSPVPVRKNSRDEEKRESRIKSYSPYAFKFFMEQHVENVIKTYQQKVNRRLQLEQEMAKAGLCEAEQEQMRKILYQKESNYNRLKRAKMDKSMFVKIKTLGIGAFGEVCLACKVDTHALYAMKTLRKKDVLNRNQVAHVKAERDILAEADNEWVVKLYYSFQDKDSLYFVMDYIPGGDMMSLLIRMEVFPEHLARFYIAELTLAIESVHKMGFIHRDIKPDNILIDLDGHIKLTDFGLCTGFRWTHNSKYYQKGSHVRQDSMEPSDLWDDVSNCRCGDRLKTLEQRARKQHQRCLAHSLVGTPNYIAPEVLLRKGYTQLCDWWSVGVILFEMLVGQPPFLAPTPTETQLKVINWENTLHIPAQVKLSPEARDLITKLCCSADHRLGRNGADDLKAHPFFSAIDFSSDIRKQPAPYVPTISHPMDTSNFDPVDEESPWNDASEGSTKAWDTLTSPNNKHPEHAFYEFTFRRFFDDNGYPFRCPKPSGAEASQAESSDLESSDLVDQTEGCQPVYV
Chain of MAK (P20794 whole entry): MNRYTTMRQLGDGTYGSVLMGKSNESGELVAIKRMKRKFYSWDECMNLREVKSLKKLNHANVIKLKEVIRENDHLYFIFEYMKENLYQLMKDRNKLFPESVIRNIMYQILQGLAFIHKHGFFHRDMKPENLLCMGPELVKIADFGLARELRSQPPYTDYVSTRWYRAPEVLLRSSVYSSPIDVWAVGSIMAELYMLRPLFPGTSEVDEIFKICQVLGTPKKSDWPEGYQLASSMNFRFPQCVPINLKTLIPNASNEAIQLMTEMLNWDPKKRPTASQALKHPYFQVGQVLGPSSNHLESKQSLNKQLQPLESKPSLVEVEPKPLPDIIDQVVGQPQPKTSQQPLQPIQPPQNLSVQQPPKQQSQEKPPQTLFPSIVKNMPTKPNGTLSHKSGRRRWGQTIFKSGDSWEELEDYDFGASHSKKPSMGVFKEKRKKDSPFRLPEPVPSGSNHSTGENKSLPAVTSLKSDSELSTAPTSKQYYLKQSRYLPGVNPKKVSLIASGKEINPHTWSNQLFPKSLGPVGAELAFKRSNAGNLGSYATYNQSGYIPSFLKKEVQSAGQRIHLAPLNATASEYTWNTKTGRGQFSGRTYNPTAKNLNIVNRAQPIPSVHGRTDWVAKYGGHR

C=CC(=O)N1CCC[C@@H](n2nc(-c3ccc(Oc4ccccc4)cc3)c3c(N)ncnc32)C1 [Ibrutinib]
1 µM GBD00276 (ibrutinib), % inhibition [1]: 3.408% | 1 µM GBD00276 (ibrutinib), % inhibition [2]: 31.87% | 1 µM GBD00276 (ibrutinib), % inhibition [3]: 0.9944% | 1 µM GBD00276 (ibrutinib), % inhibition [4]: 56.77% | 1 µM GBD00276 (ibrutinib), % inhibition [5]: 19.57% | 1 µM GBD00276 (ibrutinib), % inhibition [6]: 4.378% | 1 µM GBD00276 (ibrutinib), % inhibition [7]: -4.773% | 1 µM GBD00276 (ibrutinib), % inhibition [8]: -2.978% | 1 µM GBD00276 (ibrutinib), % inhibition [9]: 3.601% | 1 µM GBD00276 (ibrutinib), % inhibition [10]: 7.244% | 1 µM GBD00276 (ibrutinib), % inhibition [11]: -9.161% | 1 µM GBD00276 (ibrutinib), % inhibition [12]: 10.92% | 1 µM GBD00276 (ibrutinib), % inhibition [13]: 17.59% | 1 µM GBD00276 (ibrutinib), % inhibition [14]: -21.62% | 1 µM GBD00276 (ibrutinib), % inhibition [15]: 2.135% | 1 µM GBD00276 (ibrutinib), % inhibition [16]: -6.395% | 1 µM GBD00276 (ibrutinib), % inhibition [17]: 11.58% | 1 µM GBD00276 (ibrutinib), % inhibition [18]: 12.88% | 1 µM GBD00276 (ibrutinib), % inhibition [19]: -8.778% | 1 µM GBD00276 (ibrutinib), % inhibition [20]: -6.849% | 1 µM GBD00276 (ibrutinib), % inhibition [21]: 12.3% | 1 µM GBD00276 (ibrutinib), % inhibition [22]: 11.48% | 1 µM GBD00276 (ibrutinib), % inhibition [23]: -33.95% | 1 µM GBD00276 (ibrutinib), % inhibition [24]: 9.929% | 1 µM GBD00276 (ibrutinib), % inhibition [25]: 38.81% | 1 µM GBD00276 (ibrutinib), % inhibition [26]: 2.433% | 1 µM GBD00276 (ibrutinib), % inhibition [27]: 18.73% | 1 µM GBD00276 (ibrutinib), % inhibition [28]: 19.49% | 1 µM GBD00276 (ibrutinib), % inhibition [29]: -5.288% | 1 µM GBD00276 (ibrutinib), % inhibition [30]: -1.464% | 1 µM GBD00276 (ibrutinib), % inhibition [31]: 14.55% | 1 µM GBD00276 (ibrutinib), % inhibition [32]: 14.5% | 1 µM GBD00276 (ibrutinib), % inhibition [33]: 29.61% | 1 µM GBD00276 (ibrutinib), % inhibition [34]: 7.114% | 1 µM GBD00276 (ibrutinib), % inhibition [35]: -24.31% | 1 µM GBD00276 (ibrutinib), % inhibition [36]: 18.83% | 1 µM GBD00276 (ibrutinib), % inhibition [37]: -9.861% | 1 µM GBD00276 (ibrutinib), % inhibition [38]: -10.68%
